Data on 1 compound can be found in BindingDB's records for doi:10.1073/pnas.0609412103 (Genomics Institute of The Novartis Research Foundation, 2007).

This assay is described as follows: Inhibition of Tel-fused RON kinase-mediated mouse BaF3 cell proliferation.

One may read the IC50 as the midpoint of a concentration-inhibition curve. Higher therefore signals a need for much substance. The compound `COc1cc(N2CCC(N3CCN(C)CC3)CC2)ccc1Nc1ncc(Cl)c(Nc2ccccc2S(=O)(=O)C(C)C)n1` [TAE684] displayed an IC50 of 1630 nM.
